# System: MV-4-11 cells
# Assay: Gene expression microarray analysis (Affymetrix PrimeView) and GSEA
# Assay type: cell-based, human
# Parameters: RFU PODN (11730768_x_at) / Fold change /veh PODN (11730768_x_at) / RFU LINC00158 (11744669_a_at) / Fold change /veh LINC00158 (11744669_a_at) / RFU DUSP10 (11751237_a_at) / Fold change /veh DUSP10 (11751237_a_at) / RFU ID3 (11757404_x_at) / Fold change /veh ID3 (11757404_x_at) / RFU PLEKHG5 (11737974_s_at) / Fold change /veh PLEKHG5 (11737974_s_at) / RFU LRRC4B (11730491_at) / Fold change /veh LRRC4B (11730491_at) / RFU GIMAP4 (11747438_a_at) / Fold change /veh GIMAP4 (11747438_a_at) / RFU KRT8 (11758183_x_at) / Fold change /veh KRT8 (11758183_x_at) / RFU CNN1 (11734310_a_at) / Fold change /veh CNN1 (11734310_a_at) / RFU VPS37D (11726825_at) / Fold change /veh VPS37D (11726825_at) / RFU C10orf10 (11716522_x_at) / Fold change /veh C10orf10 (11716522_x_at) / RFU KIR2DL2 /// KIR2DL4 /// KIR2DL5A /// KIR2DL5B /// KIR2DS1 /// KIR2DS2 /// KIR2DS3 /// KIR2DS4 /// KIR3DL3 /// KIR3DL3 /// KIR3DS1 (11738374_at) / Fold change /veh KIR2DL2 /// KIR2DL4 /// KIR2DL5A /// KIR2DL5B /// KIR2DS1 /// KIR2DS2 /// KIR2DS3 /// KIR2DS4 /// KIR3DL3 /// KIR3DL3 /// KIR3DS1 (11738374_at) / RFU C1QL1 (11718748_at) / Fold change /veh C1QL1 (11718748_at) / RFU TMPRSS4 (11747572_a_at) / Fold change /veh TMPRSS4 (11747572_a_at) / RFU HAMP (11756126_x_at) / Fold change /veh HAMP (11756126_x_at) / RFU RNFT2 (11725882_a_at) / Fold change /veh RNFT2 (11725882_a_at) / RFU NR4A2 (11747474_a_at) / Fold change /veh NR4A2 (11747474_a_at) / RFU ABCC12 (11746883_a_at) / Fold change /veh ABCC12 (11746883_a_at) / RFU TMEM136 (11760407_x_at) / Fold change /veh TMEM136 (11760407_x_at) / RFU CLDN22 /// WWC2 (11732394_at) / Fold change /veh CLDN22 /// WWC2 (11732394_at) / RFU HLA-DPB1 (11760878_x_at) / Fold change /veh HLA-DPB1 (11760878_x_at) / RFU SPINT1 (11716480_a_at) / Fold change /veh SPINT1 (11716480_a_at) / RFU GAP43 (11754022_s_at) / Fold change /veh GAP43 (11754022_s_at) / RFU A4GNT (11735810_at) / Fold change /veh A4GNT (11735810_at) / RFU PRB3 (11715151_x_at) / Fold change /veh PRB3 (11715151_x_at) / RFU TUBB4B (11761932_at) / Fold change /veh TUBB4B (11761932_at) / RFU CAPN14 (11732068_a_at) / Fold change /veh CAPN14 (11732068_a_at) / RFU TMCC2 (11721928_a_at) / Fold change /veh TMCC2 (11721928_a_at) / RFU IRGQ (11745062_a_at) / Fold change /veh IRGQ (11745062_a_at) / RFU FAM174B (11720279_a_at) / Fold change /veh FAM174B (11720279_a_at) / RFU TMPRSS4 (11748680_a_at) / Fold change /veh TMPRSS4 (11748680_a_at) / RFU FAM212B (11763350_a_at) / Fold change /veh FAM212B (11763350_a_at) / RFU PLEKHG5 (11743358_a_at) / Fold change /veh PLEKHG5 (11743358_a_at) / RFU ZSCAN30 (11745921_a_at) / Fold change /veh ZSCAN30 (11745921_a_at) / RFU CMKLR1 (11741424_a_at) / Fold change /veh CMKLR1 (11741424_a_at) / RFU LOC101060620 /// MAPK8IP1 (11723275_at) / Fold change /veh LOC101060620 /// MAPK8IP1 (11723275_at) / RFU SPTSSB (11747773_x_at) / Fold change /veh SPTSSB (11747773_x_at) / RFU PRSS12 (11739890_at) / Fold change /veh PRSS12 (11739890_at) / RFU BIN1 (11741810_x_at) / Fold change /veh BIN1 (11741810_x_at) / RFU WNT11 (11732464_a_at) / Fold change /veh WNT11 (11732464_a_at) / RFU C10orf10 (11716521_a_at) / Fold change /veh C10orf10 (11716521_a_at) / RFU C5orf56 (11738089_at) / Fold change /veh C5orf56 (11738089_at) / RFU CYB561 (11721691_x_at) / Fold change /veh CYB561 (11721691_x_at) / RFU ANKRD19P (11752326_a_at) / Fold change /veh ANKRD19P (11752326_a_at) / RFU OR2T12 /// OR2T33 /// OR2T8 (11738714_s_at) / Fold change /veh OR2T12 /// OR2T33 /// OR2T8 (11738714_s_at) / RFU VCAN (11748164_a_at) / Fold change /veh VCAN (11748164_a_at) / RFU JSRP1 (11732532_at) / Fold change /veh JSRP1 (11732532_at) / RFU KRTAP10-11 (11738290_x_at) / Fold change /veh KRTAP10-11 (11738290_x_at) / RFU MYO3A (11730013_a_at) / Fold change /veh MYO3A (11730013_a_at) / RFU EBF3 (11725865_a_at) / Fold change /veh EBF3 (11725865_a_at) / RFU CAMK2N1 (11719241_x_at) / Fold change /veh CAMK2N1 (11719241_x_at) / RFU C5orf56 (11738088_a_at) / Fold change /veh C5orf56 (11738088_a_at) / RFU OLFML3 (11715873_a_at) / Fold change /veh OLFML3 (11715873_a_at) / RFU LOC100653217 /// NTM (11731650_a_at) / Fold change /veh LOC100653217 /// NTM (11731650_a_at) / RFU MAPK11 (11762145_a_at) / Fold change /veh MAPK11 (11762145_a_at) / RFU FIZ1 (11724087_x_at) / Fold change /veh FIZ1 (11724087_x_at) / RFU OASL (11726364_x_at) / Fold change /veh OASL (11726364_x_at) / RFU SOX15 (11748057_x_at) / Fold change /veh SOX15 (11748057_x_at) / RFU CD79A (11719716_a_at) / Fold change /veh CD79A (11719716_a_at) / RFU HIST1H1D (11736915_at) / Fold change /veh HIST1H1D (11736915_at) / RFU CASKIN2 (11723855_a_at) / Fold change /veh CASKIN2 (11723855_a_at) / RFU LOC730098 (11760151_x_at) / Fold change /veh LOC730098 (11760151_x_at) / RFU OR4N2 (11742367_at) / Fold change /veh OR4N2 (11742367_at) / RFU PRRT2 (11749266_a_at) / Fold change /veh PRRT2 (11749266_a_at) / RFU SNX32 (11753110_a_at) / Fold change /veh SNX32 (11753110_a_at) / RFU CDHR5 (11726645_a_at) / Fold change /veh CDHR5 (11726645_a_at) / RFU RCAN1 (11760418_a_at) / Fold change /veh RCAN1 (11760418_a_at) / RFU FAM167A (11723789_a_at) / Fold change /veh FAM167A (11723789_a_at) / RFU FAM26E (11764081_at) / Fold change /veh FAM26E (11764081_at) / RFU ISYNA1 (11749810_s_at) / Fold change /veh ISYNA1 (11749810_s_at) / RFU ACY1 (11761880_at) / Fold change /veh ACY1 (11761880_at) / RFU 11764098_at / Fold change /veh 11764098_at / RFU SAMD14 (11745864_x_at) / Fold change /veh SAMD14 (11745864_x_at) / RFU NPB (11741838_a_at) / Fold change /veh NPB (11741838_a_at) / RFU TMPRSS6 (11731388_a_at) / Fold change /veh TMPRSS6 (11731388_a_at) / RFU KRTAP10-2 (11738614_at) / Fold change /veh KRTAP10-2 (11738614_at) / RFU ARHGAP8 /// PRR5-ARHGAP8 (11727945_x_at) / Fold change /veh ARHGAP8 /// PRR5-ARHGAP8 (11727945_x_at) / RFU KRTAP5-7 /// NADSYN1 (11734609_at) / Fold change /veh KRTAP5-7 /// NADSYN1 (11734609_at) / RFU RASL12 (11751679_a_at) / Fold change /veh RASL12 (11751679_a_at) / RFU CDKN2B (11736163_a_at) / Fold change /veh CDKN2B (11736163_a_at) / RFU PRF1 (11729649_at) / Fold change /veh PRF1 (11729649_at) / RFU, ZNF638 /// ZNF638-IT1 / Fold change vs veh, ZNF638 /// ZNF638-IT1 / RFU, PANK3 / Fold change vs veh, PANK3 / RFU, SH3YL1 / Fold change vs veh, SH3YL1 / RFU, ZEB2 / Fold change vs veh, ZEB2 / RFU, NRIP1 / Fold change vs veh, NRIP1 / RFU, PTTG1IP / Fold change vs veh, PTTG1IP / RFU, CAPN2 / Fold change vs veh, CAPN2 / RFU, MED14 / Fold change vs veh, MED14 / RFU, SNORA58 / Fold change vs veh, SNORA58 / RFU, C1orf63 / Fold change vs veh, C1orf63 / RFU, LRRFIP1 / Fold change vs veh, LRRFIP1 / RFU, NDUFAF7 / Fold change vs veh, NDUFAF7 / RFU, SLC12A2 / Fold change vs veh, SLC12A2 / RFU, IBTK / Fold change vs veh, IBTK / RFU, ESF1 / Fold change vs veh, ESF1 / Fold change vs veh, TMEM50B / RFU, TAOK1 / Fold change vs veh, TAOK1 / RFU, ACBD3 / Fold change vs veh, ACBD3 / RFU, TMA16 / Fold change vs veh, TMA16 / RFU, RWDD3 / Fold change vs veh, RWDD3 / RFU, BCAT1 / Fold change vs veh, BCAT1 / RFU, EDEM3 / Fold change vs veh, EDEM3 / RFU, TMEM33 / Fold change vs veh, TMEM33 / RFU, WDR75 / Fold change vs veh, WDR75 / RFU, AHCTF1 / Fold change vs veh, AHCTF1 / RFU, TFRC / Fold change vs veh, TFRC / RFU, ZDHHC17 / Fold change vs veh, ZDHHC17 / RFU, NOM1 / Fold change vs veh, NOM1 / RFU, ARL8B / Fold change vs veh, ARL8B / RFU, ZBTB11 / Fold change vs veh, ZBTB11 / RFU, TAMM41 / Fold change vs veh, TAMM41 / RFU, KIAA1704 /// LOC100996395 / Fold change vs veh, KIAA1704 /// LOC100996395 / RFU, ING1 / Fold change vs veh, ING1 / RFU, TRMT61B / Fold change vs veh, TRMT61B / RFU, FUBP3 / Fold change vs veh, FUBP3 / RFU, TP53 / Fold change vs veh, TP53 / RFU, TNKS2 / Fold change vs veh, TNKS2 / RFU, ZFP14 / Fold change vs veh, ZFP14 / RFU, ACTR2 / Fold change vs veh, ACTR2 / RFU, PPP3R1 / Fold change vs veh, PPP3R1 / RFU, PIK3R1 / Fold change vs veh, PIK3R1 / RFU, HNRNPA1 / Fold change vs veh, HNRNPA1 / RFU, RNF170 / Fold change vs veh, RNF170 / RFU, ZNF28 / Fold change vs veh, ZNF28 / RFU, RNGTT / Fold change vs veh, RNGTT / RFU, OGT / Fold change vs veh, OGT / RFU, BRD1 / Fold change vs veh, BRD1 / RFU, MARS / Fold change vs veh, MARS / RFU, ZNF655 / Fold change vs veh, ZNF655 / RFU, FAHD1 / Fold change vs veh, FAHD1 / RFU, BDP1 / Fold change vs veh, BDP1 / RFU, LRRCC1 / Fold change vs veh, LRRCC1 / RFU, ARID1A / Fold change vs veh, ARID1A / RFU, ZNF146 / Fold change vs veh, ZNF146 / RFU, ZNF330 / Fold change vs veh, ZNF330 / RFU, GPN3 / Fold change vs veh, GPN3 / RFU, C9orf123 / Fold change vs veh, C9orf123 / RFU, N4BP2L2 / Fold change vs veh, N4BP2L2 / RFU, ARFIP1 / Fold change vs veh, ARFIP1 / RFU, FAM179B / Fold change vs veh, FAM179B / RFU, BCL10 / Fold change vs veh, BCL10 / RFU, UHRF1BP1L / Fold change vs veh, UHRF1BP1L / RFU, BET1 / Fold change vs veh, BET1 / RFU, CNOT2 / Fold change vs veh, CNOT2 / RFU, ZNF268 / Fold change vs veh, ZNF268 / Fold change vs veh, ZNF507 / RFU, DGCR2 / Fold change vs veh, DGCR2 / RFU, WDSUB1 / Fold change vs veh, WDSUB1 / Fold change vs veh, HSP90B1 /// MIR3652 / RFU, ADSS / Fold change vs veh, ADSS / RFU, GK / Fold change vs veh, GK / RFU, ZNF148 / Fold change vs veh, ZNF148 / RFU, TAF9 / Fold change vs veh, TAF9 / RFU, SLC1A5 / Fold change vs veh, SLC1A5 / RFU, SLMO2 / Fold change vs veh, SLMO2 / RFU, ABCC4 / Fold change vs veh, ABCC4 / RFU, LOC101060439 /// RAP1B / Fold change vs veh, LOC101060439 /// RAP1B / RFU, RFX7 / Fold change vs veh, RFX7 / RFU, GTPBP10 / Fold change vs veh, GTPBP10 / RFU, CNEP1R1 / Fold change vs veh, CNEP1R1 / RFU, BIVM-ERCC5 /// ERCC5 / Fold change vs veh, BIVM-ERCC5 /// ERCC5 / RFU, ILF3 / Fold change vs veh, ILF3 / RFU 11762660_at / Fold change /veh 11762660_at / RFU VCAN (11757783_s_at) / Fold change /veh VCAN (11757783_s_at) / RFU DDX43 (11728927_at) / Fold change /veh DDX43 (11728927_at) / RFU KRT8 (11758188_x_at) / Fold change /veh KRT8 (11758188_x_at) / RFU NKD1 (11759106_at) / Fold change /veh NKD1 (11759106_at) / RFU SRD5A1 (11742802_a_at) / Fold change /veh SRD5A1 (11742802_a_at) / RFU TPSAB1 /// TPSB2 (11721975_s_at) / Fold change /veh TPSAB1 /// TPSB2 (11721975_s_at) / RFU GSTM3 (11746129_a_at) / Fold change /veh GSTM3 (11746129_a_at) / RFU IL23R (11737362_x_at) / Fold change /veh IL23R (11737362_x_at) / RFU TMEM51 (11727254_a_at) / Fold change /veh TMEM51 (11727254_a_at) / RFU PIWIL2 (11732686_x_at) / Fold change /veh PIWIL2 (11732686_x_at) / RFU ORM1 (11744905_x_at) / Fold change /veh ORM1 (11744905_x_at) / RFU CCDC152 (11743942_at) / Fold change /veh CCDC152 (11743942_at) / RFU ECM1 (11717891_a_at) / Fold change /veh ECM1 (11717891_a_at) / RFU IL23R (11748794_a_at) / Fold change /veh IL23R (11748794_a_at) / RFU TNFAIP8L3 (11732012_x_at) / Fold change /veh TNFAIP8L3 (11732012_x_at) / RFU MBOAT4 (11741988_at) / Fold change /veh MBOAT4 (11741988_at) / RFU 11764193_at / Fold change /veh 11764193_at / RFU TMEM53 (11763286_at) / Fold change /veh TMEM53 (11763286_at) / RFU MAGEB2 (11727129_at) / Fold change /veh MAGEB2 (11727129_at) / RFU TMEM200A (11744735_a_at) / Fold change /veh TMEM200A (11744735_a_at) / RFU CCDC152 (11751479_a_at) / Fold change /veh CCDC152 (11751479_a_at) / RFU FAM211A (11726209_a_at) / Fold change /veh FAM211A (11726209_a_at) / RFU RGS16 (11746705_a_at) / Fold change /veh RGS16 (11746705_a_at) / RFU VCAN (11755009_s_at) / Fold change /veh VCAN (11755009_s_at) / RFU RHOB (11743442_s_at) / Fold change /veh RHOB (11743442_s_at) / RFU RGS16 (11720943_a_at) / Fold change /veh RGS16 (11720943_a_at) / RFU RGS16 (11720944_at) / Fold change /veh RGS16 (11720944_at) / RFU, VPS4B / Fold change vs veh, VPS4B / RFU, CREB1 / Fold change vs veh, CREB1 / RFU, DNAJC13 / Fold change vs veh, DNAJC13 / RFU, GNAQ / Fold change vs veh, GNAQ / RFU, CDK5R1 / Fold change vs veh, CDK5R1 / RFU, ZRANB3 / Fold change vs veh, ZRANB3 / RFU, CUL4A / Fold change vs veh, CUL4A / RFU, CCNY / Fold change vs veh, CCNY / RFU, UFL1 / Fold change vs veh, UFL1 / RFU, COG3 / Fold change vs veh, COG3 / RFU, DIAPH2 / Fold change vs veh, DIAPH2 / RFU, SKA2 / Fold change vs veh, SKA2 / RFU, AFF3 / Fold change vs veh, AFF3 / RFU, LMF1 / Fold change vs veh, LMF1 / RFU, IPO11 / Fold change vs veh, IPO11 / RFU, DFFB / Fold change vs veh, DFFB / RFU, FOXP1 / Fold change vs veh, FOXP1 / RFU, CARD8 / Fold change vs veh, CARD8 / RFU, STRN3 / Fold change vs veh, STRN3 / RFU, ADK / Fold change vs veh, ADK / RFU, RASSF2 / Fold change vs veh, RASSF2 / RFU, WIPF1 / Fold change vs veh, WIPF1 / RFU, LARP1B / Fold change vs veh, LARP1B / RFU, RASA1 / Fold change vs veh, RASA1 / RFU, RB1 / Fold change vs veh, RB1 / RFU, PPFIA1 / Fold change vs veh, PPFIA1 / RFU, MAT2A / Fold change vs veh, MAT2A / RFU, CCT5 / Fold change vs veh, CCT5 / RFU, WDR92 / Fold change vs veh, WDR92 / RFU, CUX1 / Fold change vs veh, CUX1 / RFU, TTC7A / Fold change vs veh, TTC7A / RFU, TMEM135 / Fold change vs veh, TMEM135 / RFU, DEPTOR / Fold change vs veh, DEPTOR / RFU, CPM / Fold change vs veh, CPM / RFU, DNAJB6 / Fold change vs veh, DNAJB6 / RFU, CACNA2D3 / Fold change vs veh, CACNA2D3 / RFU, DTX4 / Fold change vs veh, DTX4 / RFU, TFCP2 / Fold change vs veh, TFCP2 / RFU, GMCL1 /// GMCL1P1 / Fold change vs veh, GMCL1 /// GMCL1P1 / RFU, AEBP2 / Fold change vs veh, AEBP2 / RFU, SNHG1 /// SNORD22 /// SNORD25 /// SNORD26 /// SNORD27 /// SNORD28 /// SNORD29 /// SNORD31 / Fold change vs veh, SNHG1 /// SNORD22 /// SNORD25 /// SNORD26 /// SNORD27 /// SNORD28 /// SNORD29 /// SNORD31 / Fold change (Aza/veh), C12orf56 (ProbeSet 11735607_a_at) / Fold change (ACY-1035/veh), C12orf56 (ProbeSet 11735607_a_at) / Fold change (Aza/veh), FGFR1OP (ProbeSet 11751329_s_at) / Fold change (ACY-1035/veh), FGFR1OP (ProbeSet 11751329_s_at) / Fold change (Aza/veh), VPS36 (ProbeSet 11739960_a_at) / Fold change (ACY-1035/veh), VPS36 (ProbeSet 11739960_a_at) / RFU SYPL1 (11715823_x_at) / Fold change /veh SYPL1 (11715823_x_at) / RFU IGFBP7 (11715501_s_at) / Fold change /veh IGFBP7 (11715501_s_at) / RFU REEP3 (11722064_at) / Fold change /veh REEP3 (11722064_at) / RFU IGLL1 (11728026_x_at) / Fold change /veh IGLL1 (11728026_x_at): dose or concentration left out as unconfirmed
# Conditions: MV-4-11 cells, 48 hours
smiles,measurement,value
Nc1ccc(-c2cccs2)cc1NC(=O)c1ccc2c(c1)cc(C1CC1)n2CCN1CCOCC1 [ACY-1035],Fold change /veh RCAN1 (11760418_a_at),1.01

# Reference: paper PMC5218480 (PLoS ONE, 2017)
